Laboratory results as given in patent US20210009627A1, “CYCLIC DINUCLEOTIDE COMPOUNDS CONTAINING 2-AZA-HYPOXANTHINE OR 6H-PYTAZOLO[1,5-D][1,2,4]TRIZAIN-7-ONE AS STRING AGONISTS” (BOEHRINGER INGELHEIM INTERNATIONAL GMBH, priority 2018, published 2021).
Counter-ions that a name gives are not always drawn.

Key:
hSTING WT = target: T1, hSTING WT (Homo sapiens, UniProt Q86WV6, H232R); test: THP1-Blue ISG hSTING KO reporter cells expressing hSTING WT variant; format: cell-based; conditions: WT variant cell line
T1 construct: expressed in transfected cells; host or cells: THP1-Blue ISG hSTING KO clone, retroviral MSCV-ires-GFP-Blasti
T1 sequence (Q86WV6 whole entry H232R): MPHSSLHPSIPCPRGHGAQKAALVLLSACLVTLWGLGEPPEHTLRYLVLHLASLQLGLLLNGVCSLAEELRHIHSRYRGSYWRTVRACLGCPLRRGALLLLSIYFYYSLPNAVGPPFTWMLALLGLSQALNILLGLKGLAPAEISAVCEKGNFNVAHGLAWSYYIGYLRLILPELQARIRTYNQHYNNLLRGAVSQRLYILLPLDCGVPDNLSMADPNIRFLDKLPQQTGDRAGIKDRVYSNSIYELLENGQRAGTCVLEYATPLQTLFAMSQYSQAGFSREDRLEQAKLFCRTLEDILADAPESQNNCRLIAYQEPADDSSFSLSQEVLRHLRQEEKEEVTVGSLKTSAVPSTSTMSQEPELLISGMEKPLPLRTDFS
Excerpt: (§1) Several single nucleotide polymorphisms have been identified in the human STING gene that may affect the response to cyclic dinucleotides. To determine the activity of compounds of the invention, THP1-Blue ISG reporter cell lines expressing the different human STING variants have been generated. To do so, the endogenous human STING was first deleted using the CRISPR/CAS9 system: THP1-Blue ISG cells were electroporated with ALL-IN-ONE CRISPR plasmids targeting the STING gene (purchased from Sigma encoding the gRNA and GFP as a reporter gene for successful transduction). GFP positive cells then were sorted 24 h post transfection and expanded. Cells were then dispersed in semisolid methocel medium to allow single cell clone isolations. Clones were then screened for cGAMP responsiveness using the Quanti-blue reporter assay. Non-responsive clones were subsequently analysed for STING loss by western blotting and sequencing of the STING locus.
(§2) For the overexpression of the human STING variants, a confirmed THP1-Blue ISG hSTING KO clone was transduced with individual retroviral plasmids (MSCV-ires-GFP-Blasti) encoding the allelic variants of hSTING (WT, HAQ, R232H, AQ and R293Q), respectively. Transduced cells were sorted for different levels of GFP fluorescence and STING allele expression was analysed by western blot.

hSTING R232H = target: T2, hSTING R232H (Homo sapiens, UniProt Q86WV6); test: THP1-Blue ISG hSTING KO reporter cells expressing hSTING R232H variant; format: cell-based; conditions: R232H variant cell line
T2 construct: expressed in transfected cells; host or cells: THP1-Blue ISG hSTING KO clone, retroviral MSCV-ires-GFP-Blasti
T2 sequence (Q86WV6 whole entry, stated change not applied): as the sequence (Q86WV6 whole entry H232R) above, with R232H counted along it
Excerpt: as §1, §2

[1] = target: Human STING (hSTING, residues 155-341, wild-type sequence) (Homo sapiens, UniProt Q86WV6, H232R); test: hSTING binding by differential scanning fluorimetry (DSF); conditions: 100 μM test compound, 3 μM target protein, thermal shift, at least two measurements averaged; read-out: hSTING Tm shift
Chain of Human STING (hSTING, residues 155-341, wild-type sequence) (Q86WV6 155-341 H232R): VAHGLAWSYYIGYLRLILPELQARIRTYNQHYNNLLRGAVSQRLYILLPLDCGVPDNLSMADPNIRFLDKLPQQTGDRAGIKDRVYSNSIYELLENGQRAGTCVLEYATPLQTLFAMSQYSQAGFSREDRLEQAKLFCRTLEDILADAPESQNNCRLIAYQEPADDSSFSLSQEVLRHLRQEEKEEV
Method: 3) 2 μl of this protein-dye-mixture (25× SYPRO Orange and 15 μM Protein) was added to 8 μl compound solution. Final volume was 10 μL. 4) Certain well positions were used as negative control. 5) The plates were prepared for duplicate measurement and centrifuged for 2 min at 1000 g. 6) In the measurement, 160 cycles of 0.5° C. were used (temperature ramp 15 s/cycle, 15° C. to 95° C.). Data analysis: The dissociation curves were processed in Bio-Rad CFX Manager. Peak type was set to “negative”. At least two measurements were averaged.

[2] = target: T3, human STING protein in THP1-Blue ISG cells (Homo sapiens, UniProt Q86WV6, G230A/H232R/R293Q/R71H); test: In vitro cytokine induction, THP1-Blue ISG reporter cell assay (IRF-inducible SEAP); format: cell-based; conditions: 24 hours incubation, SEAP OD at 620 nm
T3 construct: host or cells: THP1-Blue ISG cells
T3 sequence (Q86WV6 whole entry R71H/G230A/H232R/R293Q): as the sequence (Q86WV6 whole entry H232R) above, with R71H, G230A, R293Q counted along it
Excerpt: In Vitro Cytokine Induction
Activation of the STING protein expressed in THP1 cells results in an increase of interferon production. By the stable integration of an interferon regulatory factor (IRF)-inducible SEAP (secreted embryonic alkaline phosphatase) reporter construct the functional interferon signaling pathway can be monitored. Using Invivogen's QUANTI-Blue™ colorimetric enzyme assay and a suitable optical density (OD) reader the activity of SEAP can be detected and quantified. This technique could be used to characterize pharmacological modification of the STING protein. Measurements of SEAP activity were performed in THP1-Blue™ ISG cells stably expressing the human STING protein and the IRF-inducible SEAP reporter construct. Cells were cultivated for expansion in RPMI1640 medium with 10% fetal calf serum, 50 μg/ml Penicillin-Streptomycin, 100 μg/ml Zeocin, and 100 μg/ml Normocin in a 37°, 95% humidity and 5% CO2 incubator. Assay-ready cells were stored as frozen stocks.
In preparation for the assay, the cells were thawed in Zeocin-/Normocin-free medium and were distributed into the assay plates with a density of 15000 cells/15 μL per well. […]
At the day of the assay, 75 μl per well of Quanti-Blue reagent was added to all wells of the plate and the plate was incubated another 30 minutes at 37° C. The OD at 620 nm was measured on the EnVision reader (PerkinElmer). […]

hSTING R293Q = target: T4, hSTING R293Q (Homo sapiens, UniProt Q86WV6, H232R/R293Q); test: THP1-Blue ISG hSTING KO reporter cells expressing hSTING R293Q variant; format: cell-based; conditions: R293Q variant cell line
T4 construct: expressed in transfected cells; host or cells: THP1-Blue ISG hSTING KO clone, retroviral MSCV-ires-GFP-Blasti
T4 sequence (Q86WV6 whole entry H232R/R293Q): as the sequence (Q86WV6 whole entry H232R) above, with R293Q counted along it
Excerpt: as §1, §2

hSTING AQ = target: T5, hSTING AQ (Homo sapiens, UniProt Q86WV6, G230A/H232R/R293Q); test: THP1-Blue ISG hSTING KO reporter cells expressing hSTING AQ variant; format: cell-based; conditions: AQ variant cell line
T5 construct: expressed in transfected cells; host or cells: THP1-Blue ISG hSTING KO clone, retroviral MSCV-ires-GFP-Blasti
T5 sequence (Q86WV6 whole entry G230A/H232R/R293Q): as the sequence (Q86WV6 whole entry H232R) above, with G230A, R293Q counted along it
Excerpt: as §1, §2

hSTING HAQ = target: T6, hSTING HAQ (Homo sapiens, UniProt Q86WV6, G230A/H232R/R293Q/R71H); test: THP1-Blue ISG hSTING KO reporter cells expressing hSTING HAQ variant; format: cell-based; conditions: HAQ variant cell line
T6 construct: expressed in transfected cells; host or cells: THP1-Blue ISG hSTING KO clone, retroviral MSCV-ires-GFP-Blasti
T6 sequence (Q86WV6 whole entry R71H/G230A/H232R/R293Q): as the sequence (Q86WV6 whole entry H232R) above, with R71H, G230A, R293Q counted along it
Excerpt: as §1, §2

Structure (SMILES) | EC50 (hSTING WT) [µM] | EC50 (hSTING R232H) [µM] | ΔTm at 100 µM [1] [°C] | EC50 [2] [µM] | EC50 (hSTING R293Q) [µM] | EC50 (hSTING AQ) [µM] | EC50 (hSTING HAQ) [µM]
Nc1ncnc2c1ncn2[C@@H]1O[C@@H]2COP(=O)(S)O[C@@H]3[C@H](O)[C@@H](COP(=O)(S)O[C@H]2[C@H]1F)O[C@H]3n1cnc2c(=O)[nH]nnc21 (single isomer, unassigned) [Example 1.1, Cyclic 2-azainosine-(2′→5′)-phosphorothioate-2′-F-2′-deoxyadenosine-(3′→5′)-phosphoro-thioate sodium salt] | 510 | 510 | 23.9 | 0.16 | 510 | 510 | 510
Nc1ncnc2c1ncn2[C@@H]1O[C@@H]2COP(=O)(S)O[C@@H]3[C@H](O)[C@@H](COP(=O)(S)O[C@H]2[C@H]1F)O[C@H]3c1cnn2c(=O)[nH]ncc12 (single isomer, unassigned) [Example 2.1, Cyclic 8-δ-D-ribofuranosyl-pyrazolo[1,5-d]-1,2,4-triazin-4(3H)-one-(2′→5′)-phosphorothioate-2′-F-2′-deoxyadenosine-(3′→5′)-phosphorothioate sodium salt] |  |  | 17.9 | 0.14 |  |  | 
